Data: publication PMC6274539, “Photoactivatable Caged Prodrugs of VEGFR-2 Kinase Inhibitors” (Molecules, 2016)
Where two headings read alike, the source gives them in different places.

Legend:
PKD1 = PKD1 (Homo sapiens, UniProt Q15139); experiment: kinase profiling, radioactive filter binding assay; type: biochemical; conditions: 0.1 µM compound, assay duplicates; read-out: residual activity of PKD1, mean percentage activity
Protocol: (§1) The used method was a radioactive filter binding assay using ^33P ATP, for details see references. The substances were dissolved in DMSO at tested concentration of 0.1 µM. The mean percentage residual kinase activity and standard deviations of assay duplicates were determined. Analyses were performed by the International Center for Kinase Profiling at the University of Dundee, UK.

P38b MAPK = P38b MAPK (Homo sapiens, UniProt Q15759); experiment: kinase profiling, radioactive filter binding assay; type: biochemical; conditions: 0.1 µM compound, assay duplicates; read-out: residual activity of P38b MAPK, mean percentage activity
P38b MAPK, sequence (Q15759 whole entry): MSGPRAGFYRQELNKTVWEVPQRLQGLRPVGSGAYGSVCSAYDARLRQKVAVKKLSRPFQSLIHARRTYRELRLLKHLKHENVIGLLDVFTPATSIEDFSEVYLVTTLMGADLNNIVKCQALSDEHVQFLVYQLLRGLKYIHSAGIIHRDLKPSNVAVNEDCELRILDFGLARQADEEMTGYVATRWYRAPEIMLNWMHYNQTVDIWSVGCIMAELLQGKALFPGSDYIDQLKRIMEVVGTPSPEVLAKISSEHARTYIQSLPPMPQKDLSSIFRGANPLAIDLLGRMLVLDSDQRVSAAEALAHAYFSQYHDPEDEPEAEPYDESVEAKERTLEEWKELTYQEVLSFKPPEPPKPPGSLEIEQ
Protocol: as §1

JNK1 = JNK1 (Homo sapiens, UniProt P45983); experiment: kinase profiling, radioactive filter binding assay; type: biochemical; conditions: 0.1 µM compound, assay duplicates; read-out: residual activity of JNK1, mean percentage activity
JNK1, sequence (P45983 whole entry): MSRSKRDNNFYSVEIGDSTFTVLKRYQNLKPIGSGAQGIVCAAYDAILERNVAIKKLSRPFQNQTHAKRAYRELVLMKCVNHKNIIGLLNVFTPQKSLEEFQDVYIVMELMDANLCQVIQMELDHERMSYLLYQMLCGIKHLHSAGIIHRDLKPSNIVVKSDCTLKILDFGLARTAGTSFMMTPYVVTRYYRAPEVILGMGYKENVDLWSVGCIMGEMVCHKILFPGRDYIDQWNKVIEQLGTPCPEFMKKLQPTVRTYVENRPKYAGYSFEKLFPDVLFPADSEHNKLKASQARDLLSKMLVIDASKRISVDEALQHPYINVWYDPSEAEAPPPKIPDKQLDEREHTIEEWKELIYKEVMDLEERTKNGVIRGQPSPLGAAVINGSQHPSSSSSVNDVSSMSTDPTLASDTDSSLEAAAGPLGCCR
Protocol: as §1

ERK2 = ERK2 (Homo sapiens, UniProt P28482); experiment: kinase profiling, radioactive filter binding assay; type: biochemical; conditions: 0.1 µM compound, assay duplicates; read-out: residual activity of ERK2, mean percentage activity
Protocol: as §1

p38a MAPK = p38a MAPK (Homo sapiens, UniProt Q16539); experiment: kinase profiling, radioactive filter binding assay; type: biochemical; conditions: 0.1 µM compound, assay duplicates; read-out: residual activity of p38a MAPK, mean percentage activity
Protocol: as §1

PKCa = PKCa (Homo sapiens, UniProt P17252); experiment: kinase profiling, radioactive filter binding assay; type: biochemical; conditions: 0.1 µM compound, assay duplicates; read-out: residual activity of PKCa, mean percentage activity
Protocol: as §1

IRR = IRR (Homo sapiens, UniProt P14616); experiment: kinase profiling, radioactive filter binding assay; type: biochemical; conditions: 0.1 µM compound, assay duplicates; read-out: residual activity of IRR, mean percentage activity
Protocol: as §1

GSK3b = GSK3b (Homo sapiens, UniProt P49841); experiment: kinase profiling, radioactive filter binding assay; type: biochemical; conditions: 0.1 µM compound, assay duplicates; read-out: residual activity of GSK3b, mean percentage activity
GSK3b, sequence (P49841 whole entry): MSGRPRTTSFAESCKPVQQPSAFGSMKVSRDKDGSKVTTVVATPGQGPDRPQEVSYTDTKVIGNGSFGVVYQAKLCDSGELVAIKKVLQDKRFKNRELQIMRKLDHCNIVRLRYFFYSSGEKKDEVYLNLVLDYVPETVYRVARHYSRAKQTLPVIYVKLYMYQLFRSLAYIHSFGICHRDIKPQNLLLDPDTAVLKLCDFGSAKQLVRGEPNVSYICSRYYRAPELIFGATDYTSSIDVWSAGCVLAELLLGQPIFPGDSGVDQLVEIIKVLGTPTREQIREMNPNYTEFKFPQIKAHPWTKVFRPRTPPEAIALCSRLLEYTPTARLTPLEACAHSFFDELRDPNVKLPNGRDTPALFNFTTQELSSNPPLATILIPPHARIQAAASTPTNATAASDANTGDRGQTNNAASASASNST
Protocol: as §1

p38s MAPK = p38s MAPK (Homo sapiens, UniProt O15264); experiment: kinase profiling, radioactive filter binding assay; type: biochemical; conditions: 0.1 µM compound, assay duplicates; read-out: residual activity of p38s MAPK, mean percentage activity
p38s MAPK, sequence (O15264 whole entry): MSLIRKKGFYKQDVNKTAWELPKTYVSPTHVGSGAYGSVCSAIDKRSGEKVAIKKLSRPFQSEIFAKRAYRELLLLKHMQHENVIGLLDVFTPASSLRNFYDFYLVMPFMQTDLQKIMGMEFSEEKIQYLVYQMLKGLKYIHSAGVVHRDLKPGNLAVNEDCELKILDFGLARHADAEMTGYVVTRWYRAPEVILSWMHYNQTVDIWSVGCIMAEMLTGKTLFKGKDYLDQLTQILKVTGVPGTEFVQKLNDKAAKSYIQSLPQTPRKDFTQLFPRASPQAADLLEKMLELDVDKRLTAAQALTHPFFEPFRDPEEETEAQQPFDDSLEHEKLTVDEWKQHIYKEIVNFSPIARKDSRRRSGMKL
Protocol: as §1

ERK1 = ERK1 (Homo sapiens, UniProt P27361); experiment: kinase profiling, radioactive filter binding assay; type: biochemical; conditions: 0.1 µM compound, assay duplicates; read-out: residual activity of ERK1, mean percentage activity
Protocol: as §1

PRK2 = PRK2 (Homo sapiens, UniProt Q16513); experiment: kinase profiling, radioactive filter binding assay; type: biochemical; conditions: 0.1 µM compound, assay duplicates; read-out: residual activity of PRK2, mean percentage activity
Protocol: as §1

PAK6 = PAK6 (Homo sapiens, UniProt Q9NQU5); experiment: kinase profiling, radioactive filter binding assay; type: biochemical; conditions: 0.1 µM compound, assay duplicates; read-out: residual activity of PAK6, mean percentage activity
PAK6, sequence (Q9NQU5 whole entry): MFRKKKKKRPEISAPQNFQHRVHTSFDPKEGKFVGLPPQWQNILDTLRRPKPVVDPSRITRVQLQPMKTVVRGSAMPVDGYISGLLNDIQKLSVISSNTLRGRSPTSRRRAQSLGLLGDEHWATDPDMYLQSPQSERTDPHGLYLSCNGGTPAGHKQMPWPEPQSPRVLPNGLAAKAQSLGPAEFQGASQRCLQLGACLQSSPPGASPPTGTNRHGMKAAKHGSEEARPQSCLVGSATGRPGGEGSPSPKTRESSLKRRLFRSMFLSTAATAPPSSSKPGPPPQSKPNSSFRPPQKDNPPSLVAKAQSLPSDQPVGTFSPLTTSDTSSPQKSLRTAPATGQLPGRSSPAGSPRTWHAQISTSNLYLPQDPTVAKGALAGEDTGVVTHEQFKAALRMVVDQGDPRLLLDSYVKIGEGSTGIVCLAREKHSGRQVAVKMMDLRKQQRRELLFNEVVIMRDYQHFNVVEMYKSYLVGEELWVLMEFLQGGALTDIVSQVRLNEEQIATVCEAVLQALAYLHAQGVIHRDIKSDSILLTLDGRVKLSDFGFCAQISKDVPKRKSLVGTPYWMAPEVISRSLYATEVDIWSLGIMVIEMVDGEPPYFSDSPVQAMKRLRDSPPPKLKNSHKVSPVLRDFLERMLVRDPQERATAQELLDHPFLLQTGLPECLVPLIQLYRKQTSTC
Protocol: as §1

MELK = MELK (Homo sapiens, UniProt Q14680); experiment: kinase profiling, radioactive filter binding assay; type: biochemical; conditions: 0.1 µM compound, assay duplicates; read-out: residual activity of MELK, mean percentage activity
Protocol: as §1

CK2 = CK2 (Homo sapiens, UniProt P68400); experiment: kinase profiling, radioactive filter binding assay; type: biochemical; conditions: 0.1 µM compound, assay duplicates; read-out: residual activity of CK2, mean percentage activity
Protocol: as §1

HIPK2 = HIPK2 (Homo sapiens, UniProt Q9H2X6); experiment: kinase profiling, radioactive filter binding assay; type: biochemical; conditions: 0.1 µM compound, assay duplicates; read-out: residual activity of HIPK2, mean percentage activity
Protocol: as §1

CAMKKb = CAMKKb (Homo sapiens, UniProt Q96RR4); experiment: kinase profiling, radioactive filter binding assay; type: biochemical; conditions: 0.1 µM compound, assay duplicates; read-out: residual activity of CAMKKb, mean percentage activity
CAMKKb, sequence (Q96RR4 whole entry): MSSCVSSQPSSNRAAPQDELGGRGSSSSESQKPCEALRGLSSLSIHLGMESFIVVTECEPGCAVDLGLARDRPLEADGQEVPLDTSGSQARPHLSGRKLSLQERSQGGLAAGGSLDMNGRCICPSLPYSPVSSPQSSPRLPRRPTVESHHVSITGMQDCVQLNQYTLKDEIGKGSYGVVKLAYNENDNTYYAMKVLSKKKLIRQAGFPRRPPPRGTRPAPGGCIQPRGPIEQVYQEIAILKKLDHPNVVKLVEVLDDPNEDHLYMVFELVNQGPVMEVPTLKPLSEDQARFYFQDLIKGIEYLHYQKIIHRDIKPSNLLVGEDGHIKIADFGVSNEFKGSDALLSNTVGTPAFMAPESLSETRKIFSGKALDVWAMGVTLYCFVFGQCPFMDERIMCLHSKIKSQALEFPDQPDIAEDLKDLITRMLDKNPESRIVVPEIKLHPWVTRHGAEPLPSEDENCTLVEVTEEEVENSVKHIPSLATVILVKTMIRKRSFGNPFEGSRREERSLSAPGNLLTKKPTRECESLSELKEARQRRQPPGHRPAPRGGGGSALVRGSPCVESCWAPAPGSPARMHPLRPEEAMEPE
Protocol: as §1

MNK1 = MNK1 (Homo sapiens, UniProt Q9BUB5); experiment: kinase profiling, radioactive filter binding assay; type: biochemical; conditions: 0.1 µM compound, assay duplicates; read-out: residual activity of MNK1, mean percentage activity
Protocol: as §1

MSK1 = MSK1 (Homo sapiens, UniProt O75582); experiment: kinase profiling, radioactive filter binding assay; type: biochemical; conditions: 0.1 µM compound, assay duplicates; read-out: residual activity of MSK1, mean percentage activity
Protocol: as §1

Aurora B = Aurora B (Homo sapiens, UniProt Q96GD4); experiment: kinase profiling, radioactive filter binding assay; type: biochemical; conditions: 0.1 µM compound, assay duplicates; read-out: residual activity of Aurora B, mean percentage activity
Aurora B, sequence (Q96GD4 whole entry): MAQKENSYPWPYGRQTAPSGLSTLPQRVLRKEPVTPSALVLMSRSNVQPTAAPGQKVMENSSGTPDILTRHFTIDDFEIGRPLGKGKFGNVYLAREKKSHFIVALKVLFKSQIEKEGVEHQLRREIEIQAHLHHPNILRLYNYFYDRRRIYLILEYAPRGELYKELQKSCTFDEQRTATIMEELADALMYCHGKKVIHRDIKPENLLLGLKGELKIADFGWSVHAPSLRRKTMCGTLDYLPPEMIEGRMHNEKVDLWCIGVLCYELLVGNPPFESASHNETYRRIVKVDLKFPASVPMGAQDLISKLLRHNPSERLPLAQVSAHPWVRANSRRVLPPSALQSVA
Protocol: as §1

BRSK2 = BRSK2 (Homo sapiens, UniProt Q8IWQ3); experiment: kinase profiling, radioactive filter binding assay; type: biochemical; conditions: 0.1 µM compound, assay duplicates; read-out: residual activity of BRSK2, mean percentage activity
Protocol: as §1

RSK2 = RSK2 (Homo sapiens, UniProt P51812); experiment: kinase profiling, radioactive filter binding assay; type: biochemical; conditions: 0.1 µM compound, assay duplicates; read-out: residual activity of RSK2, mean percentage activity
RSK2, sequence (P51812 whole entry): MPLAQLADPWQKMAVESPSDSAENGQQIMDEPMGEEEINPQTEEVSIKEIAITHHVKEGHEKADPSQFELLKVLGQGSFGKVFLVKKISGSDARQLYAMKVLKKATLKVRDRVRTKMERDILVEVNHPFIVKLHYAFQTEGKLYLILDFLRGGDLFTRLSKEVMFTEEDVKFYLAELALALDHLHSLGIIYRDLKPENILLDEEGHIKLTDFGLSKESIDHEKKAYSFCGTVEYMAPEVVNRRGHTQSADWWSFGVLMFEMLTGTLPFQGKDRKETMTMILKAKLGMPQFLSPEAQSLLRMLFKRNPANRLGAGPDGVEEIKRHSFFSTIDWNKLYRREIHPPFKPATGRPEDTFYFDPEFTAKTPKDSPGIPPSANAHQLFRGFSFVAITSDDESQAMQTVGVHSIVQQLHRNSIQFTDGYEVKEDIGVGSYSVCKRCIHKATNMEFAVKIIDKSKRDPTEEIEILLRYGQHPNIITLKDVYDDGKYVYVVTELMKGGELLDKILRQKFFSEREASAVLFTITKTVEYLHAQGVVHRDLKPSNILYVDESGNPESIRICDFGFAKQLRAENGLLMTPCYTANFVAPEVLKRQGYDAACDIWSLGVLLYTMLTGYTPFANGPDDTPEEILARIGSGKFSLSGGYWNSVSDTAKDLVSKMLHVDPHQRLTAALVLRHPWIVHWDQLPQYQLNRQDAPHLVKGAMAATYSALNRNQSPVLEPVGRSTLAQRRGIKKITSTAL
Protocol: as §1

PC-3 cells = experiment: cellular growth (proliferation) assay, resazurin; type: cell-based
Protocol: Growth assays on VEGFR-2 dependent PC-3 cells were performed.
PC-3 cells were purchased from CLS Cell Lines Service GmbH (Eppelheim, Germany). The cells were grown in DMEM:Hams F12 (1:1) medium with 5% FCS. PC-3 cells were incubated in a 5% CO2 humidified atmosphere at 37 °C.
The cells were grown in cell flasks until approximately 90% confluence and then seeded to give 13000 cells in 100 μL per well into 96-well CulturePlates™ (Perkin Elmer). In addition to the test plates, one plate was prepared for reference measurement at day zero. All plates were incubated for 24 h at 37 °C in a humidified atmosphere with 5% CO2. Compounds 1, 3, 4, and 5 were dissolved in 100% DMSO (v/v) and added to the test plates. The final DMSO concentration in the assay was 0.5% (v/v). Viability of the cells in the day zero control plates were determined on the same day without adding any compounds. For viability measurement the resazurin assay was used. The shift in the fluorescence signal was measured at the LS55 Fluorescence spectrometer (Perkin Elmer). For the photoactivation experiments the test plates were irradiated at 365 nm for 5 min (LED source: 8× Nichia NCSU033B, Sahlmann Photochemical Solutions, 50%, 1.1 kW/m^2). Test plates were incubated for further 48 h and cell viability was defined as described above. Measured raw data was converted into percent of cell growth by using the high control (0.5% DMSO (v/v) without compound) and the day zero control. For dose-response studies, 11 different concentrations of compounds were tested in duplicates. IC50 values were calculated using the 4-parameter logarithmic fit option of GraphPad Prism 5.

[1] = Homo sapiens, PC-3, light or radiation study, 48 h, no UV irradiation, cell growth after 48 h, read-out: GI50 without Irradiation
[2] = Homo sapiens, PC-3, light or radiation study, irradiated at 365 nm, 5 min, 1.1 kW/m^2, cell growth after 48 h, read-out: GI50 after Irradiation

PKD1, sequence (Q15139 whole entry): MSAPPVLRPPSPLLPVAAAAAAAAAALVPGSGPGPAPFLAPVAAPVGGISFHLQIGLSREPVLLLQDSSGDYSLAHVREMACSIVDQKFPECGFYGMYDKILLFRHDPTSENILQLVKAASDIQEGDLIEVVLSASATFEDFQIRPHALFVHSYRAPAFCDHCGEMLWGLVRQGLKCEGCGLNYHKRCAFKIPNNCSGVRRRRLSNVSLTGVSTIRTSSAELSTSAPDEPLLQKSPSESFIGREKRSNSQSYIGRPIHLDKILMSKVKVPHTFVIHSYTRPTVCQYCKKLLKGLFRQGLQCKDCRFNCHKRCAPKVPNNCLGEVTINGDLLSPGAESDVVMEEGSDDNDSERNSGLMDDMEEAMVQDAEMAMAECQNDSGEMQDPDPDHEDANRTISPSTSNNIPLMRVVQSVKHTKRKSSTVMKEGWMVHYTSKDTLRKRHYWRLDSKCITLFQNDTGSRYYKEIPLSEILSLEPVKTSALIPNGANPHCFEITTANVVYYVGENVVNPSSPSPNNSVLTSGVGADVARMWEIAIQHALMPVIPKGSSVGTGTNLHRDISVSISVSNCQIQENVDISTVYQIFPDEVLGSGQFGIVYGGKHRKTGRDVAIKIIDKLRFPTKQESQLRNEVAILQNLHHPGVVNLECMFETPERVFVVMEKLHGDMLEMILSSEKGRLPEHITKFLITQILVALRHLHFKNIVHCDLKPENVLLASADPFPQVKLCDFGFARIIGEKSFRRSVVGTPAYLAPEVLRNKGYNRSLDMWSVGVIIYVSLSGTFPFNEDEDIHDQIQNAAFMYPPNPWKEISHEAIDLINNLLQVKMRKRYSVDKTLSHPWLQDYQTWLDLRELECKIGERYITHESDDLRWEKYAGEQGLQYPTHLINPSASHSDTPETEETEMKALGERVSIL

Compound | remaining activity at 0.1 µM (PKD1) | remaining activity at 0.1 µM (P38b MAPK) | remaining activity at 0.1 µM (JNK1) | remaining activity at 0.1 µM (ERK2) | remaining activity at 0.1 µM (p38a MAPK) | remaining activity at 0.1 µM (PKCa) | remaining activity at 0.1 µM (IRR) | remaining activity at 0.1 µM (GSK3b) | remaining activity at 0.1 µM (p38s MAPK) | remaining activity at 0.1 µM (ERK1) | remaining activity at 0.1 µM (PRK2) | remaining activity at 0.1 µM (PAK6) | remaining activity at 0.1 µM (MELK) | remaining activity at 0.1 µM (CK2) | remaining activity at 0.1 µM (HIPK2) | remaining activity at 0.1 µM (CAMKKb) | remaining activity at 0.1 µM (MNK1) | remaining activity at 0.1 µM (MSK1) | remaining activity at 0.1 µM (Aurora B) | remaining activity at 0.1 µM (BRSK2) | other results
COc1cc2c3c(c4c5ccccc5[nH]c4c2c(OC)c1OC)C(=O)NC3=O [Compound 3, 5,6,7-Trimethoxybenzo[a]pyrrolo[3,4-c]carbazole-1,3(2H,8H)-dione] | 60% | 89% | 96% | 93% | 78% | 90% | 41% | 5% | 90% | 91% | 52% | 99% | 55% | 91% | 7% | 49% | 79% | 55% | 47% | 66% | remaining activity at 0.1 µM (RSK2): 62%; GI50 (PC-3 cells; [1]): 0.2 µM; GI50 (PC-3 cells; [2]): 0.38 µM; GI50 (PC-3 cells; irradiated at 365 nm, 5 min, 1.1 kW/m^2, cell growth after 48 h, read-out: GI50 after Irradiation): 0.4 µM
COc1cc(C2=C(c3c[nH]c4ccccc34)C(=O)NC2=O)cc(OC)c1OC [Compound 1, 3-(1H-Indol-3-yl)-4-(3,4,5-trimethoxyphenyl)-1H-pyrrole-2,5-dione] | 100% | 86% | 96% | 94% | 89% | 113% | 58% | 21% | 108% | 100% | 84% | 97% | 74% | 94% | 23% | 81% | 80% | 69% | 84% | 94% | remaining activity at 0.1 µM (RSK2): 91%; GI50 (PC-3 cells; [1]): 6.4 µM; GI50 (PC-3 cells; [2]): 2.9 µM
